Source: EP4803147A2
Read-outs that look alike come from different tables or passages of the source.

CCO[C@@H]1c2nc(cs2)-c2ccc3c(c2)c(c(-c2cc(C4=CC5COCC(C4)N5C(=O)OCC4c5ccccc5-c5ccccc54)cnc2[C@H](C)OC)n3CC)CC(C)(C)COC(=O)[C@@H]2CCCN(N2)C(=O)[C@H]1NC(=O)OC(C)(C)C
ring closure, yield of all isomers (from CCO[C@H](c1nc(Br)cs1)[C@H](NC(=O)OC(C)(C)C)C(=O)N1CCC[C@@H](C(=O)OCC(C)(C)Cc2c(-c3cc(C4=CC5COCC(C4)N5C(=O)OCC4c5ccccc5-c5ccccc54)cnc3[C@H](C)OC)n(CC)c3ccc(B4OC(C)(C)C(C)(C)O4)cc23)N1, cc_pd bond, Pd(dppf)Cl2.DCM, toluene, 205.0 mM, 80.0 °C, 3.0 h): 49%

CCn1c(-c2cccnc2[C@H](C)OC)c2c3cc(ccc31)-c1csc(n1)C[C@H](NC(=O)OC(C)(C)C)C(=O)N1CCC[C@H](N1)C(=O)OCC(C)(C)C2
ring closure, yield of all isomers (from CCn1c(-c2cccnc2[C@H](C)OC)c(CC(C)(C)CO)c2cc(-c3csc(C[C@H](NC(=O)OC(C)(C)C)C(=O)N4CCC[C@@H](C(=O)O)N4)n3)ccc21, ester bond, EDCI/HOBt/DIPEA, DCM, 12.65 mM, 25.0 °C, 16.0 h): 81%

CCO[C@@H]1c2nc(cs2)-c2ccc3c(c2)c(c(-c2cc(N4CCN(C(=O)OCc5ccccc5)CC4)cnc2[C@H](C)OC)n3CCOC(C)C)CC(C)(C)COC(=O)[C@@H]2CCCN(N2)C(=O)[C@H]1NC(=O)OC(C)(C)C
ring closure, yield of all isomers (from CCO[C@H](c1nc(Br)cs1)[C@H](NC(=O)OC(C)(C)C)C(=O)N1CCC[C@@H](C(=O)OCC(C)(C)Cc2c(-c3cc(N4CCN(C(=O)OCc5ccccc5)CC4)cnc3[C@H](C)OC)n(CCOC(C)C)c3ccc(B4OC(C)(C)C(C)(C)O4)cc23)N1, cc_pd bond, Pd(dtbpf)Cl2, K3PO4, toluene, 16.0 mM, 65.0 °C, 2.0 h): 44%

CCO[C@@H]1c2nc(cs2)-c2ccc3c(c2)c(c(-c2cc([C@@H]4C[C@H]5COC[C@@H](C4)N5C(=O)OCC4c5ccccc5-c5ccccc54)cnc2[C@H](C)OC)n3CC)CC(C)(C)COC(=O)[C@@H]2CCCN(N2)C(=O)[C@H]1NC(=O)OC(C)(C)C
ring closure, yield of all isomers (from CCO[C@H](c1nc(Br)cs1)[C@H](NC(=O)OC(C)(C)C)C(=O)N1CCC[C@@H](C(=O)OCC(C)(C)Cc2c(-c3cc([C@@H]4C[C@H]5COC[C@@H](C4)N5C(=O)OCC4c5ccccc5-c5ccccc54)cnc3[C@H](C)OC)n(CC)c3ccc(B4OC(C)(C)C(C)(C)O4)cc23)N1, cc_pd bond, Pd(DtBPF)Cl2, toluene, 10.4 mM, 80.0 °C, 3.0 h): 65%

CCn1c(-c2cccnc2[C@H](C)OC)c2c3cc(ccc31)-c1csc(n1)[C@@H](OCC(F)F)[C@H](NC(=O)OC(C)(C)C)C(=O)N1CCC[C@H](N1)C(=O)OCC(C)(C)C2
ring closure, yield of all isomers (from CCn1c(-c2cccnc2[C@H](C)OC)c(CC(C)(C)COC(=O)[C@@H]2CCCN(C(=O)[C@@H](NC(=O)OC(C)(C)C)[C@H](OCC(F)F)c3nc(Br)cs3)N2)c2cc(B3OC(C)(C)C(C)(C)O3)ccc21, cc_pd bond, Pd(DtBPF)Cl2, K3PO4, toluene, 10.0 mM, 60.0 °C, 1.0 h): 59%

CCn1c(-c2cccnc2[C@H](C)OC)c2c3cc(ccc31)C1=CC[C@H](COC)N(C1)C[C@H](NC(=O)OC(C)(C)C)C(=O)N1CCC[C@H](N1)C(=O)OCC(C)(C)C2
ring closure, yield of all isomers (from CCn1c(-c2cccnc2[C@H](C)OC)c(CC(C)(C)COC(=O)[C@@H]2CCCN(C(=O)[C@H](CN3CC(Br)=CC[C@@H]3COC)NC(=O)OC(C)(C)C)N2)c2cc(B3OC(C)(C)C(C)(C)O3)ccc21, cc_pd bond, Pd(dppf)Cl2, K3PO4, toluene, 116.0 mM, 70.0 °C, 3.0 h): 30%

CCO[C@@H]1c2nc(cs2)-c2ccc3c(c2)c(c(-c2cccnc2[C@H](C)OC)n3CC)CC(C)(C)COC(=O)[C@@H]2CCCN(N2)C(=O)[C@H]1NC(=O)OC(C)(C)C
ring closure, yield of all isomers (from CCO[C@H](c1nc(Br)cs1)[C@H](NC(=O)OC(C)(C)C)C(=O)N1CCC[C@@H](C(=O)OCC(C)(C)Cc2c(-c3cccnc3[C@H](C)OC)n(CC)c3ccc(B4OC(C)(C)C(C)(C)O4)cc23)N1, cc_pd bond, Pd(DTBpf)Cl2/K3PO4, toluene, 26.7 mM, 60.0 °C, 1.0 h): 31%

CC1(C)COC(=O)[C@@H]2CCCN(N2)C(=O)[C@@H](NC(=O)OC(C)(C)C)Cc2nc(cs2)-c2ccc3c(c2)c(c(-c2ccnc(N4CCN(C(=O)OCc5ccccc5)CC4)c2)n3C(C)(C)C#N)C1
ring closure, yield of all isomers (from CC(C)(CO)Cc1c(-c2ccnc(N3CCN(C(=O)OCc4ccccc4)CC3)c2)n(C(C)(C)C#N)c2ccc(-c3csc(C[C@H](NC(=O)OC(C)(C)C)C(=O)N4CCC[C@@H](C(=O)O)N4)n3)cc12, ester bond, EDCI/HOBT/DIPEA, DCM, 1.05 mM, 25.0 °C, 16.0 h): 52%

CCn1c(-c2cccnc2[C@H](C)OC)c2c3cc(ccc31)-c1csc(n1)C(N(C)C)[C@H](NC(=O)OCC1c3ccccc3-c3ccccc31)C(=O)N1CCC[C@H](N1)C(=O)OCC(C)(C)C2 (some centres unmarked)
ring closure, yield of all isomers (from CCn1c(-c2cccnc2[C@H](C)OC)c(CC(C)(C)COC(=O)[C@@H]2CCCN(C(=O)[C@@H](NC(=O)OCC3c4ccccc4-c4ccccc43)C(c3nc(Br)cs3)N(C)C)N2)c2cc(B3OC(C)(C)C(C)(C)O3)ccc21, cc_pd bond, Pd(dtbpf)Cl2, toluene, 27.3 mM, 60.0 °C, 1.0 h): 19%

CO[C@@H](C)c1ncccc1-c1c2c3cc(ccc3n1CCOC1CCOCC1)-c1csc(n1)C[C@H](NC(=O)OC(C)(C)C)C(=O)N1CCC[C@H](N1)C(=O)OCC(C)(C)C2
ring closure, yield of all isomers (from CO[C@@H](C)c1ncccc1-c1c(CC(C)(C)CO)c2cc(-c3csc(C[C@H](NC(=O)OC(C)(C)C)C(=O)N4CCC[C@@H](C(=O)O)N4)n3)ccc2n1CCOC1CCOCC1, ester bond, EDCI/HOBt, DIPEA, DCM, 7.0 mM, 25.0 °C, 16.0 h): 68%

CCn1c(-c2cccnc2[C@H](C)OC)c2c3cc(ccc31)C1=CC(O[Si](c3ccccc3)(c3ccccc3)C(C)(C)C)CN(C1)C[C@H](NC(=O)OC(C)(C)C)C(=O)N1CCC[C@H](N1)C(=O)OCC(C)(C)C2 (some centres unmarked)
ring closure, yield of all isomers (from CCn1c(-c2cccnc2[C@H](C)OC)c(CC(C)(C)COC(=O)[C@@H]2CCCN(C(=O)[C@H](CN3CC(Br)=CC(O[Si](c4ccccc4)(c4ccccc4)C(C)(C)C)C3)NC(=O)OC(C)(C)C)N2)c2cc(B3OC(C)(C)C(C)(C)O3)ccc21, cc_pd bond, Pd(dppf)Cl2, K2CO3, toluene, 20.0 mM, 65.0 °C, 2.0 h): 42%

CC1(C)COC(=O)[C@@H]2CCCN(N2)C(=O)[C@@H](NC(=O)OC(C)(C)C)Cc2nc(cs2)-c2ccc3[nH]c(I)c(c3c2)C1
ring closure, yield of all isomers (from CC(C)(CO)Cc1c(I)[nH]c2ccc(-c3csc(C[C@H](NC(=O)OC(C)(C)C)C(=O)N4CCC[C@@H](C(=O)O)N4)n3)cc12, ester bond, EDCI/HOBt/DIPEA, DCM, 17.57 mM, 25.0 °C, 16.0 h): 45.9%

CCO[C@@H]1c2nc(cs2)-c2ccc3c(c2)c(c(-c2cc(N4CCN(C(=O)OCc5ccccc5)CC4)cnc2[C@H](C)OC)n3CCOC(C)C)CC2(CC2)COC(=O)[C@@H]2CCCN(N2)C(=O)[C@H]1NC(=O)OC(C)(C)C
ring closure, yield of all isomers (from CCO[C@H](c1nc(Br)cs1)[C@H](NC(=O)OC(C)(C)C)C(=O)N1CCC[C@@H](C(=O)OCC2(Cc3c(-c4cc(N5CCN(C(=O)OCc6ccccc6)CC5)cnc4[C@H](C)OC)n(CCOC(C)C)c4ccc(B5OC(C)(C)C(C)(C)O5)cc34)CC2)N1, cc_pd bond, XPhos-Pd-G3/XPhos, K3PO4, toluene, 28.0 mM, 65.0 °C, 2.0 h): 27%

CCO[C@@H]1c2nc(cs2)-c2ccc3c(c2)c(c(-c2cc(C4=CCN(C(=O)OCc5ccccc5)CC4)cnc2[C@H](C)OC)n3CC)CC(C)(C)COC(=O)[C@@H]2CCCN(N2)C(=O)[C@H]1NC(=O)OC(C)(C)C
ring closure, yield of all isomers (from CCO[C@H](c1nc(Br)cs1)[C@H](NC(=O)OC(C)(C)C)C(=O)N1CCC[C@@H](C(=O)OCC(C)(C)Cc2c(-c3cc(C4=CCN(C(=O)OCc5ccccc5)CC4)cnc3[C@H](C)OC)n(CC)c3ccc(B4OC(C)(C)C(C)(C)O4)cc23)N1, cc_pd bond, Pd(DtBPF)Cl2, K3PO4, toluene, 40.7 mM, 70.0 °C, 1.0 h): 39%

CCn1c(-c2cccnc2[C@H](C)OC)c2c3cc(ccc31)-c1csc(n1)[C@@H](OCC1=CCN(C(=O)OCc3ccccc3)CC1)[C@H](NC(=O)OC(C)(C)C)C(=O)N1CCC[C@H](N1)C(=O)OCC(C)(C)C2
ring closure, yield of all isomers (from CCn1c(-c2cccnc2[C@H](C)OC)c(CC(C)(C)COC(=O)[C@@H]2CCCN(C(=O)[C@@H](NC(=O)OC(C)(C)C)[C@H](OCC3=CCN(C(=O)OCc4ccccc4)CC3)c3nc(Br)cs3)N2)c2cc(B3OC(C)(C)C(C)(C)O3)ccc21, cc_pd bond, Pd(dtbpf)Cl2, K3PO4, toluene, 60.0 °C, 2.0 h): 32%

CCn1c(-c2cccnc2[C@H](C)OC)c2c3cc(ccc31)-c1csc(n1)[C@@H](OCCN(C)C)[C@H](NC(=O)OC(C)(C)C)C(=O)N1CCC[C@H](N1)C(=O)OCC(C)(C)C2
ring closure, yield of all isomers (from CCn1c(-c2cccnc2[C@H](C)OC)c(CC(C)(C)COC(=O)[C@@H]2CCCN(C(=O)[C@@H](NC(=O)OC(C)(C)C)[C@H](OCCN(C)C)c3nc(Br)cs3)N2)c2cc(B3OC(C)(C)C(C)(C)O3)ccc21, cc_pd bond, Pd(dtbpf)Cl2, K3PO4, toluene, 57.0 mM, 60.0 °C, 4.0 h): 50%

CCn1c(-c2cc(N3CCN(C(=O)OCc4ccccc4)CC3)cnc2[C@H](C)OC)c2c3cc(ccc31)-c1csc(n1)C[C@H](NC(=O)OC(C)(C)C)C(=O)N1CCC[C@H](N1)C(=O)OCC(C)(C)C2
ring closure, yield of all isomers (from CCn1c(-c2cc(N3CCN(C(=O)OCc4ccccc4)CC3)cnc2[C@H](C)OC)c(CC(C)(C)CO)c2cc(-c3csc(C[C@H](NC(=O)OC(C)(C)C)C(=O)N4CCC[C@@H](C(=O)O)N4)n3)ccc21, ester bond, EDCI/HOBt/DIPEA, MeCN, 10.34 mM, 25.0 °C, 16.0 h): 54.8%
